According to ChEMBL document CHEMBL5058649, “Data for DCP probe BAY 1816032” (2022):

Legend:
[1] = target: Serine/threonine-protein kinase PAK 3 (Homo sapiens) (UniProt O75914); assay: PAK3 DiscoveRx kinase panel; conditions: Compound concentration 1.0 uM
[2] = target: High affinity nerve growth factor receptor (Homo sapiens) (UniProt P04629); assay: TRKA DiscoveRx kinase panel; conditions: Compound concentration 1.0 uM
[3] = target: Rho-associated protein kinase 1 (Homo sapiens) (UniProt Q13464); assay: ROCK1 DiscoveRx kinase panel; conditions: Compound concentration 1.0 uM
Sequence of Rho-associated protein kinase 1 (Homo sapiens) (Q13464 2-1354 limits assumed): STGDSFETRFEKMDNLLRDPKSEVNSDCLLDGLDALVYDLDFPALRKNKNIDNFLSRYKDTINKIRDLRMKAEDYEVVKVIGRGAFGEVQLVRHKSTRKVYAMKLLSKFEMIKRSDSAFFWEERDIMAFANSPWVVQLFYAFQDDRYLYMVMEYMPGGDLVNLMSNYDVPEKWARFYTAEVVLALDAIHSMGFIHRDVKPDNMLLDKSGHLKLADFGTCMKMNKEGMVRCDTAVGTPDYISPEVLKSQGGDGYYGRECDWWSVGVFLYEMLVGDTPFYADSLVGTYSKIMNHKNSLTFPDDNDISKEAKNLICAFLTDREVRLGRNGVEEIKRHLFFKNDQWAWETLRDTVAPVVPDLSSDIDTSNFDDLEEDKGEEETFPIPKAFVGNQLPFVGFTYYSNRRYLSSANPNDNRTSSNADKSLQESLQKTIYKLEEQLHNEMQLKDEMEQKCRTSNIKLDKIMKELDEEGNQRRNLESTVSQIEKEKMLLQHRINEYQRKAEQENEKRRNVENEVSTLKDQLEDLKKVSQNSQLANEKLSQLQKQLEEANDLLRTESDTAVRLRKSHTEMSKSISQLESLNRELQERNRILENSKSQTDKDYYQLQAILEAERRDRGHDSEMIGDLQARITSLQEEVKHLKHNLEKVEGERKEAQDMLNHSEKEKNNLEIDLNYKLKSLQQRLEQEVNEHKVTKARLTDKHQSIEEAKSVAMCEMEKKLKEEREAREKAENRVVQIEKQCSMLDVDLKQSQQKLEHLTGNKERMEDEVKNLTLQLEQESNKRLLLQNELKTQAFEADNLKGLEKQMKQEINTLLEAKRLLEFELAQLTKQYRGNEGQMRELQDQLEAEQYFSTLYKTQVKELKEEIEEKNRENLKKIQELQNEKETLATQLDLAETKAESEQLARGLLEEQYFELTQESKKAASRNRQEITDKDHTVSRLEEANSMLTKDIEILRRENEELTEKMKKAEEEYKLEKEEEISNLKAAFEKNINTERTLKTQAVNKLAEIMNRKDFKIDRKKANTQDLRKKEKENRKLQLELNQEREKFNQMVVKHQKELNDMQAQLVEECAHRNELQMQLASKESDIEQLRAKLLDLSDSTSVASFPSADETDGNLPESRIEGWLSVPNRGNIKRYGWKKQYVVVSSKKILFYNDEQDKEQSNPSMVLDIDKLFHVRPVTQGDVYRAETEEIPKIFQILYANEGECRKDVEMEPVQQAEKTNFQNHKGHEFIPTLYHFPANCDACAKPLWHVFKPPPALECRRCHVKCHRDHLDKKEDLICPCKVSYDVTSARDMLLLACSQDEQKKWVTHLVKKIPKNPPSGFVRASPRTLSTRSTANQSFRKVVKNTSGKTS

HeLa = assay: HeLa (presence of 3 nM Paclitaxel) cell line Proliferation assay; type: functional, Homo sapiens; conditions: time 4 day
[4] = target: Sodium-dependent noradrenaline transporter (Homo sapiens, UniProt P23975); conditions: Compound concentration 10.0 uM
Sequence of Sodium-dependent noradrenaline transporter (P23975 whole entry): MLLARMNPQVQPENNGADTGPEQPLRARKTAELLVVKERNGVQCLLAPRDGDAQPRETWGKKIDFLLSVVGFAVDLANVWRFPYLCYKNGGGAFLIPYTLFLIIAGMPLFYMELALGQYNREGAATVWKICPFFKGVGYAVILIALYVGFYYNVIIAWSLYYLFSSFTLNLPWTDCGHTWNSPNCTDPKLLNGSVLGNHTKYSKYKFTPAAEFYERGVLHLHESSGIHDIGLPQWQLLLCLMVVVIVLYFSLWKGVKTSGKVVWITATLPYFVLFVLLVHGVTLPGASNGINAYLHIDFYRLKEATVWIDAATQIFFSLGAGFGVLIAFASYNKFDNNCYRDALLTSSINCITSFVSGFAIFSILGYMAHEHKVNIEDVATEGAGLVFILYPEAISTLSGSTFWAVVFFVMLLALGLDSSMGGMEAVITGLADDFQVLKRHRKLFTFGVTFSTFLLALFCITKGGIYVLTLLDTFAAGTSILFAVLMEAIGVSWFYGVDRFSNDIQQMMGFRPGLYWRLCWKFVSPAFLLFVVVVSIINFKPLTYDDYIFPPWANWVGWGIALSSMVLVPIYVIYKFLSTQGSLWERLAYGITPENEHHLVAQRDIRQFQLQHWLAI

[5] = PHKG2 DiscoveRx kinase panel; conditions: Homo sapiens; Compound concentration 1.0 uM

Sequence of High affinity nerve growth factor receptor (Homo sapiens) (P04629 33-796 limits assumed): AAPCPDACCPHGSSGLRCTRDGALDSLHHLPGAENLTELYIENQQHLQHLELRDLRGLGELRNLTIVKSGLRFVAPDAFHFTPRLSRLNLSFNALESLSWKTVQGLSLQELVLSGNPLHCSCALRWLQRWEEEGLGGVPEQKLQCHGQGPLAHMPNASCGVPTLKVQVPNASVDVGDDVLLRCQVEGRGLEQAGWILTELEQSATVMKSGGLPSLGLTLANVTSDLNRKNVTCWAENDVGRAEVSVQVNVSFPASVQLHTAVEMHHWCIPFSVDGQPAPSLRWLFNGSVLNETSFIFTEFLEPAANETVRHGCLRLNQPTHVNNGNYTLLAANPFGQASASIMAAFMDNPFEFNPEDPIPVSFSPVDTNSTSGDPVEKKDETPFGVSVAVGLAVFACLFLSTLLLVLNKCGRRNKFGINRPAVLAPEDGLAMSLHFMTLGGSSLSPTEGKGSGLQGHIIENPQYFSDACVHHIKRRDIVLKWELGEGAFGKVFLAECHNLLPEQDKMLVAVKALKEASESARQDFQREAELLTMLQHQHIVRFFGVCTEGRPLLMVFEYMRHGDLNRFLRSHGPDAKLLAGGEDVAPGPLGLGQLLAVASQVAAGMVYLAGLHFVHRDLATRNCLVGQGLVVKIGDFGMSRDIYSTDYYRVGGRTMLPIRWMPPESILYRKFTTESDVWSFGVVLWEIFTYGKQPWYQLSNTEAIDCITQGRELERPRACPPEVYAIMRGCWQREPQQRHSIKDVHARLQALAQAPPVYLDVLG
Sequence of Serine/threonine-protein kinase PAK 3 (Homo sapiens) (O75914 whole entry, looked up): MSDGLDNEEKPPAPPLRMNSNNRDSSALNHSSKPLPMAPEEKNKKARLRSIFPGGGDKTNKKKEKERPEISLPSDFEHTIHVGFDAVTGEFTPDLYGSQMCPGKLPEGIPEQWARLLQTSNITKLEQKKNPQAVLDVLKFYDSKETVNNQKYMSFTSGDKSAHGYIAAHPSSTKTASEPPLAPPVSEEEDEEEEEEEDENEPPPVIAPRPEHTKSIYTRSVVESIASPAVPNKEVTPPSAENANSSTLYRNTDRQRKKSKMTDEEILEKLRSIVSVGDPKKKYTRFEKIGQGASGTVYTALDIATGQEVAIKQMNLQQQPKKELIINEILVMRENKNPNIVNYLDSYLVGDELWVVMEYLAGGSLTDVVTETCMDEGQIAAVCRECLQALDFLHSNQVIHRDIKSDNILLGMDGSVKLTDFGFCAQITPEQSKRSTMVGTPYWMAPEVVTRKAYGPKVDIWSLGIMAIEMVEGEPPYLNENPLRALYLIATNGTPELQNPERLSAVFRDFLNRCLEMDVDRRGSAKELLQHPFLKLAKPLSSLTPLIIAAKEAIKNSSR

Structure (SMILES): COc1cnccc1Nc1nc(-c2nn(Cc3c(F)cc(OCCO)cc3F)c3ccccc23)ncc1OC
- residual activity [1]: 81%
- residual activity [2]: 92%
- residual activity [3]: 100%
- Cell Proliferation IC50 (HeLa): 63 nM
- inhibition [4]: 26%
- residual activity [5]: 98%
